Values quoted from earlier work, collected in patent publication US20140271465A1, “MATRIX METALLOPROTEASE (MMP) TARGETED AGENTS FOR IMAGING AND THERAPY” (Mallinckrodt LLC, priority 2013, published 2014).

How the values were obtained:
rhMMP14 = biological target: T1, rhMMP14 (Homo sapiens, UniProt P50281); settings: control compound, vendor description
T1 construct: purchased R&D Systems 918-MP

rhMMP2 = biological target: T2, rhMMP2 (Homo sapiens, UniProt P08253); settings: control compound, vendor description
T2 construct: purchased R&D Systems 902-MP
T2 sequence (P08253 110-660): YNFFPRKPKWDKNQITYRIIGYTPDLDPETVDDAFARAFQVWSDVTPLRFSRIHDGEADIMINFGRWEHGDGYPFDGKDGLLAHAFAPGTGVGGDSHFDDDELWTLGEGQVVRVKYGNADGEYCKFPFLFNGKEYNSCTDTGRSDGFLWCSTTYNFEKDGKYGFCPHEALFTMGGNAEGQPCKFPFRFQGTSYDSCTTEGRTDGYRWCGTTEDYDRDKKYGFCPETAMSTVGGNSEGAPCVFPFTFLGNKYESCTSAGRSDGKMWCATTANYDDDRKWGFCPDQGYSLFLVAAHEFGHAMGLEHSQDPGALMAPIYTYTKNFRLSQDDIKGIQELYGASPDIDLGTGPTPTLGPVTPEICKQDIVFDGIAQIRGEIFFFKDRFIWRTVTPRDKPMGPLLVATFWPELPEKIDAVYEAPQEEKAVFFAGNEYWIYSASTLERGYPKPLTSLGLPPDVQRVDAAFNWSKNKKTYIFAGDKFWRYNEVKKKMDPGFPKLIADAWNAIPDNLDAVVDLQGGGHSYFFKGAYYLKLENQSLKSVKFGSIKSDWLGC

Inhibition of MMP-14 (control description) (rhMMP14) | Inhibition of MMP-2 (control description) (rhMMP2) | SMILES
low nM levels | low nM levels | CNC(=O)[C@H](Cc1ccccc1)NC(=O)[C@H](CC(C)C)[C@H](CSc1cccs1)C(=O)NO [Batimastat]
poor inhibitor for MMP-14 | selective MMP-2 inhibitor | CC(C)ON(CC(=O)NO)S(=O)(=O)c1ccc(-c2ccccc2)cc1 [ARP100]
